Marks after values point to notes of the source that are not given here.
Tests used:
[1] = 400 μg folate vs equimolar amounts, after 8 weeks of treatment; cited from earlier work
diabetic Wistar rats [2] = assay: Oral glucose tolerance test (OGTT) in diabetic Wistar rats; assay type: in vivo; details: for whole blood glucose values from baseline: 0-120 min
Procedure: Fasting blood sugar concentration was estimated.
Oral glucose tolerance test (OGTT). The test was performed by oral administration of glucose (2 g/kg body wt). Graph showing blood glucose concentration before (0 min) and 30, 60, 90, and 120 min after administration. Data are shown as the mean±SEM (n=6).

rat liver homogenate = assay: In vitro glucose assay using rat liver homogenate; assay type: biochemical; details: 100 μM glucose, 25 μM or 50 μM folates, 37° C., 1 hour
Procedure: The glucose concentration was determined after incubation at 37° C. for 1 hour.
(A) Folates at a concentration of 25 μM. (B) Folates at 50 μM. Control represents glucose concentration without folate treatment which is considered to be 100%. The results are presented as mean±SD (n=3), and the significance of the values was analyzed by one-way ANOVA followed by Tukey's test (p<0.05). *p<0.05, **p<0.01, […], ***p<0.0001.

diabetic Wistar rats [3] = assay: Organ weight after long-term oral administration in diabetic Wistar rats; assay type: in vivo; parameters: unit not given here; details: mean±SD (n=6)
Procedure: The results are presented as mean±SD (n=6), and the significance of the values was analyzed by one-way ANOVA followed by Tukey's test (p<0.05). *p<0.05, **p<0.01, ***p<0.001, ****p<0.0001.

diabetic Wistar rats [4] = assay: Organ histology (islets of the pancreas) in diabetic Wistar rats; assay type: in vivo; details: long-term oral administration

SMILES | serum folate concentrations compared to the folate group [1] [fold] | whole blood glucose values from baseline (diabetic Wistar rats [2]; OGTT) | glucose tolerance (diabetic Wistar rats [2]; oral glucose 2 g/kg body wt) | glucose concentration upon treatment (rat liver homogenate) | Organ weight, Adipose (diabetic Wistar rats [3]) | Organ weight, Brain (diabetic Wistar rats [3]) | Organ weight, Cecum matter (diabetic Wistar rats [3]) | Organ weight, Heart (diabetic Wistar rats [3]) | Organ weight, Kidney (diabetic Wistar rats [3]) | Organ weight, Liver (diabetic Wistar rats [3]) | Organ weight, Lungs (diabetic Wistar rats [3]) | Organ weight, Spleen (diabetic Wistar rats [3]) | Organ weight, Testes (diabetic Wistar rats [3]) | histology of islets of the pancreas / beta cells (diabetic Wistar rats [4]) | time at which decline in whole blood glucose leveled off (diabetic Wistar rats [2]; OGTT)
CN1c2c(nc(N)[nH]c2=O)NC[C@H]1CNc1ccc(C(=O)N[C@@H](CCC(=O)O)C(=O)O)cc1 [[6R,S]-5-methyltetrahydrofolate] | ~3 |  |  |  |  |  |  |  |  |  |  |  |  |  | 
Nc1nc(=O)c2c([nH]1)NCC(CNc1ccc(C(=O)N[C@@H](CCC(=O)O)C(=O)O)cc1)=N2 [dihydrofolate] |  | more gradual decline | greater effect | decreased | 5.43 ± 1.75* | 1.64 ± .09 | 2.72 ± 0.51 | 0.88 ± 0.07 | 1.74 ± 0.21 | 10.68 ± 1.46 | 2.09 ± 0.18 | 1.09 ± 0.10 | 2.88 ± 0.27 | Severe hypertrophy of islets of the pancreas with hyperplasia of beta cells | 
CN1c2c(nc(N)[nH]c2=O)NCC1CNc1ccc(C(=O)N[C@@H](CCC(=O)O)C(=O)O)cc1 (some centres unmarked) [5-methyltetrahydrofolate] |  | gradual decline |  | decreased | 2.77 ± 2.11** | 1.46 ± 0.18 | 4.33 ± 0.95 | 0.82 ± 0.23 | 2.12 ± 0.2 | 8.49 ± 2.52 | 1.93 ± 0.62 | 0.92 ± 0.35 | 2.31 ± 0.79 | Moderate hypertrophy of islets of the pancreas and moderate hyperplasia of beta cells | about 120 minutes
Nc1nc(=O)c2nc(CNc3ccc(C(=O)N[C@@H](CCC(=O)O)C(=O)O)cc3)cnc2[nH]1 [synthetic folate] |  | did not show much declaim |  | no effect | 0.87 ± 0.60**** |  | 6.46 ± 1.49 | 0.68 ± 0.07 | 2.12 ± 0.46 | 7.35 ± 1.02 | 1.46 ± 0.38 | 0.66 ± 0.08 | 2.57 ± 0.95 | Moderate atrophy of islets of the pancreas with apoptosis of beta cells | 
